# Measurements reported in US4418065A, “Halophenyl-pyridyl-allylamine derivatives and use” (priority 1979, dated 1983).
# Where a name gives a salt, the structure may show the parent alone. Read-outs that look alike come from different tables or passages of the source.
# What was measured:
# [1] = test system: neuronal uptake of noradrenaline; experiment: Inhibition of the uptake of ^3 H-NA in vivo (i.p. administration, hypothalamus slices); set-up: species or system mouse; conditions: for ED50: Mus musculus, ip, 0.5 h, read-out: Uptake of ^3 H-NA in vivo ED50; for Percentage inhibition of ^3 H-NA uptake at the highest dose examined: in vivo, at the highest dose examined (the > value, μmole/kg)
# Description: (§1) The test substances were administered intraperitoneally half an hour before the animals were killed. […] The incubation time was 5 minutes with 5 minutes of preincubation before the labelled amines were added. The slices were dissolved in Soluene® and the amounts of radioactive amines taken up were determined by liquid scintillation. […] Active uptake is defined as that part of the radioactive uptake which is inhibited by a high concentration of cocaine.
# [2] = test system: neuronal uptake of 5-hydroxytryptamine; experiment: Inhibition of the uptake of ^14 C-5-HT in vivo (i.p. administration, hypothalamus slices); set-up: species or system mouse; conditions: for ED50: Mus musculus, ip, 0.5 h, read-out: Uptake of ^14 C-5-HT in vivo ED50; for Percentage inhibition of ^14 C-5-HT uptake at the highest dose examined: in vivo, at the highest dose examined (the > value, μmole/kg)
# Description: as §1
# [3] = test system: neuronal uptake of noradrenaline; experiment: Inhibition of the uptake of ^3 H-NA in vitro (slices of mouse midbrain); format: biochemical; conditions: for EC50: mouse brain slices, 1×10^-7 M ^3 H-NA, 5 min
# Description: as §1
# (§2) In the in vitro method slices of mouse midbrain were preincubated for 5 minutes with solution of the compound to be tested and then incubated as described above.
# [4] = test system: neuronal uptake of 5-hydroxytryptamine; experiment: Inhibition of the uptake of ^14 C-5-HT in vitro (slices of mouse midbrain); format: biochemical; conditions: for EC50: in vitro, mouse brain slices, 1×10^-7 M ^14 C-5-HT, 5 min
# Description: as §1, §2
# [5] = i.p., half an hour before the animals were killed, 50 percent decrease of active uptake
EC50 [3] [µM],EC50 [4] [µM],Structure (SMILES),"ED50 [1, 5] [µmol/kg]","ED50 [2, 5] [µmol/kg]",other results
,,"CN(C)C/C=C(\c1cccnc1)c1cccc(Br)c1 [Example 12, 3-(3-Bromophenyl)-N,N-dimethyl-3-(3-pyridyl)allylamine oxalate]",66,> 98,
,,"CN(C)C/C=C(/c1ccc(Br)cc1)c1cccnc1 [4-Br CH3 Z, (Z)-3-(4-bromophenyl)-N,N-dimethyl-3-(3-pyridyl)allylamine, reference compound]",> 98,49,Percentage inhibition of ^3 H-NA uptake at the highest dose examined ([1]; i.p.): 26%
,,"CN(C)CC=C(c1cccnc1)c1ccc(Cl)cc1Cl [2,4-di Cl CH3 E/Z 1:1, 3-(2,4-dichlorophenyl)-N,N-dimethyl-3-(3-pyridyl)-allylamine]",,42,ED50 [1]: 63 µmol/kg
,,"CN(C)C/C=C(\c1ccc(Br)cc1)c1cccnc1 [4-Br CH3 E, reference compound]",25,> 98,Percentage inhibition of ^14 C-5-HT uptake at the highest dose examined ([2]; i.p.): 36%
2.2,4.2,"CN(C)C/C=C(\c1cccnc1)c1ccccc1Br [Example 6, (E)-3-(2-Bromophenyl)-N,N-dimethyl-3-(3-pyridyl)allylamine oxalate]",37,> 98,
,,"CNCC=C(c1ccc(F)cc1)c1cccnc1 [Example 5, 3-(4-Fluorophenyl)-N-methyl-3-(3-pyridyl)allylamine oxalate]",29,72,
,,"CNC/C=C(\c1ccc(Br)cc1)c1cccnc1 [4-Br H E, reference compound]",25,102,
1.1,1.1,"CN(C)C/C=C(/c1ccc(Cl)cc1)c1cccnc1 [Example 2, (Z)-3-(4-chlorophenyl)-N,N-dimethyl-3-(3-pyridyl)allylamine oxalate]",46,34,
,,"CNC/C=C(/c1ccc(Br)cc1)c1cccnc1 [4-Br H Z, reference compound]",> 101,15,Percentage inhibition of ^3 H-NA uptake at the highest dose examined ([1]; i.p.): 38%
,,"CNC/C=C(/c1ccc(Cl)cc1)c1cccnc1.O=C(O)C(=O)O [Example 3, (Z)-3-(4-Chlorophenyl)-N-methyl-3-(3-pyridyl)allylamine oxalate]",23,19,
,,"CN(C)C/C=C(\c1cccnc1)c1ccc(Cl)cc1Cl [Example 9, (E)-3-(2,4-Dichlorophenyl)-N,N-dimethyl-3-(3-pyridyl)allylamine oxalate]",> 101,43,
0.9,0.5,"CNCC=C(c1cccnc1)c1ccc(Cl)cc1Cl [2,4-di Cl H E/Z 1:1, 3-(2,4-dichlorophenyl)-N-methyl-3-(3-pyridyl)-allylamine]",82,60,
2.2,3.5,"CN(C)CC=C(c1cccnc1)c1ccccc1Br [2-Br CH3 E/Z 1:1, 3-(2-bromophenyl)-N,N-dimethyl-3-(3-pyridyl)-allylamine]",79,> 126,
0.3,0.6,"CNC/C=C(\c1cccnc1)c1ccccc1Br [Example 7, (E)-3-(2-Bromophenyl)-N-methyl-3-(3-pyridyl)allylamine oxalate]",20,102,
,,"CN(C)CC=C(c1ccc(F)cc1)c1cccnc1 [Example 4, 3-(4-Fluorophenyl)-N,N-dimethyl-3-(3-pyridyl)allylamine oxalate]",72,115,
2.3,0.5,"CNC/C=C(\c1cccnc1)c1ccc(Cl)cc1Cl [Example 10, (E)-3-(2,4-Dichlorophenyl)-N-methyl-3-(3-pyridyl)allylamine oxalate]",73,18,
,,"CN(C)CCCN1c2ccccc2CCc2ccccc21 [Imipramine, reference compound]",,,ED50 [1]: 63 µmol/kg; ED50 [2]: 125 µmol/kg
0.9,1.4,"CNC/C=C(\c1cccnc1)c1cccc(Br)c1 [Example 8, (Z)-3-(3-Bromophenyl)-N-methyl-3-(3-pyridyl)allylamine oxalate]",58,> 102,

Structure (SMILES),EC50 [3] [µM],EC50 [4] [µM],"ED50 [1, 5] [µmol/kg]","ED50 [2, 5] [µmol/kg]",other results
"CN(C)C/C=C(\c1cccnc1)c1cccc(Cl)c1.O=C(O)C(=O)O [Example 1, (Z)-3-(3-chlorophenyl)-N,N-dimethyl-3-(3-pyridyl)allylamine oxalate]",10,2.7,> 110,> 110,Percentage inhibition of ^3 H-NA uptake at the highest dose examined ([1]; i.p.): 41%; Percentage inhibition of ^14 C-5-HT uptake at the highest dose examined ([2]; i.p.): 12%
"CNCC=C(c1cccnc1)c1ccccc1Br [2-Br H E/Z 1:1, 3-(2-bromophenyl)-N-methyl-3-(3-pyridyl)-allylamine]",1.4,1.5,,> 132,ED50 [1]: 63 µmol/kg
"CN(C)C/C=C(/c1ccc(I)cc1)c1cccnc1.O=C(O)C(=O)O [Example 11, (Z)-3-(4-iodophenyl)-N,N-dimethyl-3-(3-pyridyl)allylamine oxalate]",> 22,1.3,> 88,46,"Percentage inhibition of ^3 H-NA uptake at the highest dose examined ([1]; i.p.): 0%; Percentage inhibition of ^3 H-NA uptake at the highest concentration examined ([3]; at the highest concentration examined (the > value, μM)): 33%; selectivity of the uptake inhibition (5-HT versus NA), in words ([4]; 5-HT versus NA uptake, brain slices): completely selective inhibitor of the 5-HT uptake"
